For the assay, the system named is BDF1 mice, P388 leukemia ip, median survival T/C. As to the kind of experiment: NCI In Vivo Anticancer Drug Screen. Data for tumor model P388 Leukemia (intraperitoneal) in B6D2F1 (BDF1) mice. To be noted: endpoint: median survival time, higher = longer survival. In a few lines: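 Reported as T/C, where T is the survival measurement in dosed animals and C the same measurement in vehicle controls.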

The mark [1] stands for this setting: dose: 50.0 mg/kg/injection, schedule: Q01DX009 (ip), vehicle: Klucel (hydroxypropylcellulose) (HPC).
Setting [2] is: dose: 200.0 mg/kg/injection, schedule: Q01DX009 (ip), vehicle: Klucel (hydroxypropylcellulose) (HPC).
[3] abbreviates: dose: 400.0 mg/kg/injection, schedule: Q01DX009 (ip), vehicle: Klucel (hydroxypropylcellulose) (HPC).
Where [4] appears, read: dose: 100.0 mg/kg/injection, schedule: Q04DX003 (ip), vehicle: saline with Tween-80.
Setting [5] is: dose: 200.0 mg/kg/injection, schedule: Q04DX003 (ip), vehicle: saline with Tween-80.
Setting [6] is: dose: 100.0 mg/kg/injection, schedule: Q01DX009 (ip), vehicle: saline.
Setting [7] is: dose: 100.0 mg/kg/injection, schedule: Q04DX003 (ip), vehicle: saline.
Setting [8] is: dose: 200.0 mg/kg/injection, schedule: Q01DX009 (ip), vehicle: saline.
Setting [9] is: dose: 200.0 mg/kg/injection, schedule: Q04DX003 (ip), vehicle: saline.
[10] abbreviates: dose: 400.0 mg/kg/injection, schedule: Q01DX009 (ip), vehicle: saline.
The mark [11] stands for this setting: dose: 400.0 mg/kg/injection, schedule: Q04DX003 (ip), vehicle: saline.
Where [12] appears, read: dose: 25.0 mg/kg/injection, schedule: Q01DX009 (ip), vehicle: saline.
[13] abbreviates: dose: 50.0 mg/kg/injection, schedule: Q01DX009 (ip), vehicle: saline.
[14] abbreviates: dose: 200.0 mg/kg/injection, schedule: Q04DX003 (ip), vehicle: Klucel (hydroxypropylcellulose) (HPC).
Where [15] appears, read: dose: 100.0 mg/kg/injection, schedule: Q04DX003 (ip), vehicle: Klucel (hydroxypropylcellulose) (HPC).
[16] abbreviates: dose: 400.0 mg/kg/injection, schedule: Q04DX003 (ip), vehicle: saline with Tween-80.
[17] abbreviates: dose: 12.5 mg/kg/injection, schedule: Q01DX009 (ip), vehicle: saline.

“And” between values parts separate entries of the source, which are not always exact repeats. Equal entries are not always repeated. Inconclusive results and toxic doses are left out.

For the molecule `CC(=O)C(=O)NC1/C=C(C)\C=C/C(O)C/C=C(C)\C=C/C(O)CC2OC(=O)C1(C)C(=O)C2C` (stereo unspecified), the T/C under setting [1] was 109 % of control and 122 % of control; the T/C under setting [2] is 153 % of control and 163 % of control; the T/C under setting [3] is 171 % of control.

For the molecule `CCOC(=O)c1ccc(NC(=O)CCl)cc1`, the T/C is 104 % of control (dose: 6.25 mg/kg/injection, schedule: Q01DX010 (ip), vehicle: saline); 100 % of control (dose: 12.5 mg/kg/injection, schedule: Q01DX010 (ip), vehicle: saline); 100 % of control (dose: 25.0 mg/kg/injection, schedule: Q01DX010 (ip), vehicle: saline); 100 % of control (dose: 50.0 mg/kg/injection, schedule: Q01DX010 (ip), vehicle: saline).

Take `CCOCCOCCOc1nc(F)c(Cl)cc1Cl`: the T/C was 100 % of control under setting [4] and 118 % of control under setting [5].

With `O=[N+]([O-])c1ccc(Nc2ccc(Cl)c(Cl)c2)c2c1no[n+]2[O-]`, the T/C (dose: 17.5 mg/kg/injection, schedule: Q01DX009 (ip), vehicle: saline with Tween-80) was 88 % of control; the T/C (dose: 35.0 mg/kg/injection, schedule: Q01DX009 (ip), vehicle: saline with Tween-80) is 92 % of control; the T/C (dose: 70.0 mg/kg/injection, schedule: Q01DX009 (ip), vehicle: saline with Tween-80) is 88 % of control.

On to `O=C1c2ccccc2C(=O)C(Cl)C1Cl` (stereo unspecified), for which the T/C was 117 % of control (dose: 1.56 mg/kg/injection, schedule: Q01DX009 (ip), vehicle: saline with Tween-80); 103 % of control (dose: 3.13 mg/kg/injection, schedule: Q01DX009 (ip), vehicle: saline with Tween-80); 101 % of control (dose: 6.25 mg/kg/injection, schedule: Q01DX009 (ip), vehicle: saline with Tween-80).

Consider `CCOC(=O)C(=O)CC1=CC=CC2=NC(=O)CCN12`, for which the T/C was 109 % of control (dose: 66.0 mg/kg/injection, schedule: Q01DX001 (ip), vehicle: saline with Tween-80); 100 % of control (dose: 100.0 mg/kg/injection, schedule: Q01DX001 (ip), vehicle: saline with Tween-80); 100 % of control (dose: 150.0 mg/kg/injection, schedule: Q01DX001 (ip), vehicle: saline with Tween-80); 100 % of control (dose: 200.0 mg/kg/injection, schedule: Q01DX001 (ip), vehicle: saline with Tween-80).

Regarding `CCCCC1(CC)COC(C)(Cc2ccccc2)OC1` (stereo unspecified), the T/C reads like this: under setting [6], 100 % of control; under setting [7], 104 % of control; under setting [8], 100 % of control; under setting [9], 100 % of control; under setting [10], 90 % of control; under setting [11], 104 % of control.

For `NNc1nncc2ccccc12`, the T/C was 90 % of control (dose: 6.25 mg/kg/injection, schedule: Q04DX003 (ip), vehicle: saline); 90 % of control (dose: 12.5 mg/kg/injection, schedule: Q04DX003 (ip), vehicle: saline); 109 % of control under setting [12]; 113 % of control (dose: 25.0 mg/kg/injection, schedule: Q04DX003 (ip), vehicle: saline); 90 % of control under setting [13]; 100 % of control under setting [7].

In the case of `O=C(C[n+]1cc(Br)cc2ccccc21)c1ccc(O)c(O)c1`, the T/C was 95 % of control under setting [1]; 118 % of control (dose: 176.0 mg/kg/injection, schedule: Q04DX003 (ip), vehicle: saline sonified); 170 % of control under setting [8]; 110 % of control under setting [14]; 122 % of control (dose: 200.0 mg/kg/injection, schedule: Q04DX003 (ip), vehicle: saline sonified); 113 % of control (dose: 264.0 mg/kg/injection, schedule: Q01DX009 (ip), vehicle: saline with Tween-80). The T/C by setting is: under setting [3], 115 % of control; under setting [10], 180 % of control; (dose: 400.0 mg/kg/injection, schedule: Q04DX003 (ip), vehicle: saline sonified) 118 % of control.

As for `CCN(CC)CCCCCNc1cc(OC)cc2c(C)ccnc12`, the T/C was 115 % of control under setting [13] and 92 % of control under setting [6].

Consider `C=CCn1nnc(-c2ccccc2)n1`, for which the T/C by setting is: (dose: 50.0 mg/kg/injection, schedule: Q01DX009 (ip), vehicle: saline with Tween-80) 117 % of control; (dose: 100.0 mg/kg/injection, schedule: Q01DX009 (ip), vehicle: saline with Tween-80) 117 % of control; (dose: 200.0 mg/kg/injection, schedule: Q01DX009 (ip), vehicle: saline with Tween-80) 119 % of control.

For `O=C1c2ccccc2C(=O)N1/N=C/C=C/c1ccccc1`, the T/C (dose: 87.5 mg/kg/injection, schedule: Q01DX009 (ip), vehicle: saline with Tween-80) was 106 % of control; the T/C (dose: 175.0 mg/kg/injection, schedule: Q01DX009 (ip), vehicle: saline with Tween-80) is 95 % of control; the T/C (dose: 350.0 mg/kg/injection, schedule: Q01DX009 (ip), vehicle: saline with Tween-80) is 87 % of control.

For the molecule `Brc1csc2ncccc12`, the T/C is 90 % of control under setting [15] and 109 % of control under setting [14].

For the molecule `Nc1ccc(NS(=O)(=O)c2ccccc2)nc1`, the T/C is 100 % of control (dose: 100.0 mg/kg/injection, schedule: Q01DX009 (ip), vehicle: Klucel (hydroxypropylcellulose) (HPC)); 100 % of control under setting [15]; 100 % of control under setting [2]; 100 % of control under setting [14]; 95 % of control under setting [3]; 100 % of control (dose: 400.0 mg/kg/injection, schedule: Q04DX003 (ip), vehicle: Klucel (hydroxypropylcellulose) (HPC)).

With `Nc1cc2c3ccccc3ncc2c2ccccc12`, the T/C is 100 % of control under setting [4], 100 % of control under setting [5] and 100 % of control under setting [16].

Turning to `NC(=S)Nc1cccc(Cl)c1`, the T/C is 118 % of control (dose: 25.0 mg/kg/injection, schedule: Q04DX003 (ip), vehicle: Klucel (hydroxypropylcellulose) (HPC)); 104 % of control (dose: 50.0 mg/kg/injection, schedule: Q04DX003 (ip), vehicle: Klucel (hydroxypropylcellulose) (HPC)); 104 % of control under setting [15].

In the case of `COC1CC(N=[N+]=[N-])C(OS(C)(=O)=O)C(C)O1` (stereo unspecified), the T/C by setting is: under setting [4], 101 % of control; under setting [5], 102 % of control; under setting [16], 101 % of control.

With `Nc1ccc(C(=O)O)c([N+](=O)[O-])c1`, the T/C under setting [17] is 92 % of control; the T/C under setting [12] is 100 % of control; the T/C under setting [13] is 105 % of control and 118 % of control; the T/C (dose: 50.0 mg/kg/injection, schedule: Q04DX003 (ip), vehicle: saline) was 99 % of control; the T/C under setting [6] is 94 % of control and 98 % of control; the T/C under setting [7] was 100 % of control. Further, the T/C by setting is: under setting [8], 107 % of control; under setting [9], 112 % of control; under setting [10], 100 % of control; under setting [11], 103 % of control.

For `O=C1CC2(C(=O)N1CN1CCN(c3ccc(F)cc3)CC1)c1ccccc1-c1ccccc12` (tested in a mixture with another compound), the T/C (dose: 25.0 mg/kg/injection, schedule: Q04DX003 (ip), vehicle: saline with Tween-80) is 101 % of control and 107 % of control and 121 % of control; the T/C (dose: 50.0 mg/kg/injection, schedule: Q04DX003 (ip), vehicle: saline with Tween-80) is 91 % of control and 101 % of control; the T/C under setting [4] was 97 % of control and 105 % of control.

`CC(C)(C)C1CNP(=O)(c2ccccc2)OC1` (stereo unspecified): the T/C is 99 % of control (dose: 50.0 mg/kg/injection, schedule: Q01DX005 (ip), vehicle: saline with Tween-80); 101 % of control (dose: 100.0 mg/kg/injection, schedule: Q01DX005 (ip), vehicle: saline with Tween-80); 100 % of control (dose: 200.0 mg/kg/injection, schedule: Q01DX005 (ip), vehicle: saline with Tween-80).

In the case of `Cc1ccc(C(=O)/C=C/N2CCN(c3ccccc3)CC2)c(C)c1`, the T/C under setting [4] was 100 % of control, the T/C under setting [5] is 100 % of control and the T/C under setting [16] was 90 % of control.

`NC1CCCCC1.[O]=[Cr](=[O])([OH])[OH]`: the T/C reads like this: (dose: 6.25 mg/kg/injection, schedule: Q01DX009 (ip), vehicle: saline) 100 % of control; under setting [17], 90 % of control.

The record behind these values is PubChem BioAssay AID328 (DTP/NCI, 2004).
